Experimental data published in patent US20180000085A1, “USE OF PICOLINAMIDE COMPOUNDS WITH FUNGICIDAL ACTIVITY” (DOW AGROSCIENCES LLC, priority 2014, published 2018).

Assays:
Puccinia triticina = test: Wheat brown rust (PUCCRT) disease control on wheat seedlings; assay type: in vivo; design: key to PUCCRT 3DC, HV activity at 100 ppm (% control rating) / PUCCRT disease control, 3DC / PUCCRT 1DP disease control rating, HV activity / PUCCRT 3DC disease control rating, HV activity / PUCCRT 3DC, LV activity at 125.1 g/H (% Control rating) / PUCCRT 1DP, LV activity at 125.1 g/H (% Control rating) / PUCCRT 3DC disease control rating, LV activity at 125.1 g/H / PUCCRT 1DP disease control rating, LV activity at 125.1 g/H / PUCCRT 3DC disease control rating, HV activity at 100 ppm / PUCCRT 1DP disease control rating, HV activity at 100 ppm / HV activity at 100 ppm PUCCRT 3DC (disease control rating) / LV activity at 125.1 g/H PUCCRT 1DP (disease control rating) / LV activity at 125.1 g/H PUCCRT 3DC (disease control rating): A: > 80; B: ≤ 80; C: Not Tested; D: No Activity Observed in the Reported Assay; conditions: for PUCCRT 1DP disease control rating, LV activity at 125.1 g/H / PUCCRT 3DC disease control rating, LV activity at 125.1 g/H: low volume application; for PUCCRT 1DP disease control rating, LV activity at 125.1 g/H / PUCCRT 1DP disease control rating, HV activity at 100 ppm: 1 day protectant; for PUCCRT 3DC disease control rating, LV activity at 125.1 g/H / PUCCRT 3DC disease control rating, HV activity at 100 ppm: 3 day curative; for PUCCRT 1DP disease control rating, HV activity at 100 ppm / PUCCRT 3DC disease control rating, HV activity at 100 ppm: high volume application
Zymoseptoria tritici = test: Leaf blotch of wheat (SEPTTR) disease control on wheat seedlings; assay type: in vivo; design: key to SEPTTR 1DP, HV activity at 100 ppm (% control rating) / SEPTTR 3DC, HV activity at 100 ppm (% control rating) / SEPTTR disease control, 1DP / SEPTTR disease control, 3DC / SEPTTR 1DP disease control rating, HV activity / SEPTTR 3DC disease control rating, HV activity / SEPTTR 3DC, LV activity at 125.1 g/H (% Control rating) / SEPTTR 1DP, LV activity at 125.1 g/H (% Control rating) / SEPTTR 1DP disease control rating, LV activity at 125.1 g/H / SEPTTR 3DC disease control rating, LV activity at 125.1 g/H / SEPTTR 3DC disease control rating, HV activity at 100 ppm / SEPTTR 1DP disease control rating, HV activity at 100 ppm / HV activity at 100 ppm SEPTTR 3DC (disease control rating) / HV activity at 100 ppm SEPTTR 1DP (disease control rating) / LV activity at 125.1 g/H SEPTTR 1DP (disease control rating) / LV activity at 125.1 g/H SEPTTR 3DC (disease control rating): A: > 80; B: ≤ 80; C: Not Tested; D: No Activity Observed in the Reported Assay; conditions: for SEPTTR 1DP disease control rating, LV activity at 125.1 g/H / SEPTTR 3DC disease control rating, LV activity at 125.1 g/H: low volume application; for SEPTTR 1DP disease control rating, LV activity at 125.1 g/H / SEPTTR 1DP disease control rating, HV activity at 100 ppm: 1 day protectant; for SEPTTR 3DC disease control rating, LV activity at 125.1 g/H / SEPTTR 3DC disease control rating, HV activity at 100 ppm: 3 day curative; for SEPTTR 1DP disease control rating, HV activity at 100 ppm / SEPTTR 3DC disease control rating, HV activity at 100 ppm: high volume application

SMILES | PUCCRT 1DP disease control rating, LV activity at 125.1 g/H (Puccinia triticina) | PUCCRT 3DC disease control rating, LV activity at 125.1 g/H (Puccinia triticina) | SEPTTR 1DP disease control rating, LV activity at 125.1 g/H (Zymoseptoria tritici) | SEPTTR 3DC disease control rating, LV activity at 125.1 g/H (Zymoseptoria tritici) | PUCCRT 1DP disease control rating, HV activity at 100 ppm (Puccinia triticina) | PUCCRT 3DC disease control rating, HV activity at 100 ppm (Puccinia triticina) | SEPTTR 1DP disease control rating, HV activity at 100 ppm (Zymoseptoria tritici) | SEPTTR 3DC disease control rating, HV activity at 100 ppm (Zymoseptoria tritici)
CCC(CC)C(Oc1cc(F)ccc1F)C(C)OC(=O)C(CC(C)C)NC(=O)c1nccc(OC)c1OC(C)=O (stereo not shown) [Cmpd 687] | D | B (≤ 80) | D | B (≤ 80) |  |  |  | 
CCC(CC)C(Oc1cc(F)cc(Cl)c1)C(C)OC(=O)C(CC(C)C)NC(=O)c1nccc(OC)c1OC(C)=O (stereo not shown) [Cmpd 688] | D | D | D | B (≤ 80) |  |  |  | 
CCC(CC)C(Oc1ccc(Cl)cc1Cl)C(C)OC(=O)C(CC(C)C)NC(=O)c1nccc(OC)c1OC(C)=O (stereo not shown) [Cmpd 689] | D | D | D | B (≤ 80) |  |  |  | 
COc1ccnc(C(=O)NC(C)C(=O)OC(C)C(Oc2ccccc2)c2cccs2)c1OC(C)=O (stereo not shown) [Cmpd 690] | B (≤ 80) | B (≤ 80) | B (≤ 80) | B (≤ 80) |  |  |  | 
C=CC[C@@H](Oc1ccccc1)[C@H](C)OC(=O)[C@H](C)NC(=O)c1nccc(OC)c1OC(C)=O [Cmpd 695] | A (> 80) | A (> 80) | B (≤ 80) | B (≤ 80) |  |  |  | 
C=CC[C@@H](Oc1ccc(Cl)cc1Cl)[C@H](C)OC(=O)[C@H](C)NC(=O)c1nccc(OC)c1OC(C)=O [Cmpd 697] | A (> 80) | A (> 80) | D | B (≤ 80) |  |  |  | 
C=CC[C@@H](Oc1ccccc1)[C@H](C)OC(=O)[C@H](C)NC(=O)c1nccc(OC)c1OCOC(C)=O [Cmpd 698] | A (> 80) | A (> 80) | B (≤ 80) | A (> 80) |  |  |  | 
C=CC[C@@H](Oc1ccc(Cl)cc1Cl)[C@H](C)OC(=O)[C@H](C)NC(=O)c1nccc(OC)c1OCOC(C)=O [Cmpd 700] | A (> 80) | A (> 80) | D | B (≤ 80) |  |  |  | 
COc1ccnc(C(=O)NCC(=O)O[C@@H](C)[C@H](Oc2ccccc2)C(C)C)c1O [Cmpd 809] |  |  |  |  | A (> 80) | A (> 80) | D | D
CC[C@H](NC(=O)c1nccc(OC)c1O)C(=O)O[C@@H](C)[C@H](Oc1ccccc1)C(C)C [Cmpd 810] |  |  |  |  | A (> 80) | A (> 80) | A (> 80) | A (> 80)
COc1ccnc(C(=O)N[C@H](C(=O)O[C@@H](C)[C@H](Oc2ccccc2)C(C)C)C(C)C)c1O [Cmpd 811] |  |  |  |  | A (> 80) | A (> 80) | B (≤ 80) | B (≤ 80)
COc1ccnc(C(=O)N[C@@H](CC(C)C)C(=O)O[C@@H](C)[C@H](Oc2ccccc2)C(C)C)c1O [Cmpd 813] |  |  |  |  | B (≤ 80) | D | D | B (≤ 80)
COc1ccnc(C(=O)N[C@@H](C)C(=O)O[C@@H](C)[C@H](Oc2cccc(F)c2)c2cccc(-c3ccccc3)c2)c1O [Cmpd 814] |  |  |  |  | B (≤ 80) | D | D | D
